Experiment: Evaluation of solubility of surfactant
Type: physicochemical
Settings: surfactant dissolved in distilled water to a concentration of 0.75 mg/mL
Procedure: In order to use a surfactant, it is essential that the solubility of a sample itself be excellent. First of all, if the sample is not dissolved it cannot be used at all, and thus the solubility of a surfactant was evaluated as a prerequisite.

Q: For CCCCCCCCCCCCCC(=O)NCCC[N+](C)(C)CCCS(=O)(=O)[O-] [Comp. Ex. 1], which Solubility is on record?
A: Its Solubility is “∘ (dissolved at a concentration of 0.75 mg/mL)”.

Reference: patent publication US9435792B2, “Hemolysis reagent composition for hemoglobin A1C quantitative analysis using enzymatic method” (I-Sens, Inc., priority 2012, dated 2016)
